Values quoted from earlier work in patent US11528929B2, “Composition for treatment of overactive bladder” (priority 2019, dated 2022).

Conditions: pH at 50% bound and 50% in free form

O=C(O)CC(O)C(=O)O (stereo not shown) [malic acid]
isoelectric pH (dissociation point): 3.41
